# Patent publication US6989140B2, “Methods for cancer imaging” (Threshold Pharmaceuticals, Inc., priority 2001, dated 2006)
# How the values were obtained:
# Raji lymphoma cells = test: 2-NBDG uptake in Raji lymphoma cells versus peripheral blood white cells (PBMC); assay type: cell-based; settings: Raji lymphoma cells vs PBMC; 200 uM; 40 min; 37° C.; fluorescence plate reader (FIG. 2)
# Procedure: Raji cells from culture one t-75 flask. Peripheral blood white cells from Stanford Blood Bank. Leukocytes were further separated by Ficoll separation (twice). These cells are referred to as PBMC (peripheral blood mononuclear cells). Phosphate-buffered saline. 2-NBDG, 0.1 M in water.
# Culture medium with cells (either Raji or PBMC, 15 mL) were centrifuged for 10 min at 800×g. The pellet of cells was resuspended in PBS and centrifuged for 10 min at 800×g, and the resulting pellet was resuspended in 1.5 mL PBS. Cells were counted and adjusted to 1×10^6 per mL for both. Aliquots (100 uL) were placed into each of 2 tubes for each cell type, and the tubes were incubated at 37° C. for 15 min. The fluorescent deoxyglucose conjugate 2-NBDG was added to each tube to provide a concentration of 200 uM. At 40 min, the tubes were removed from the 37° C. bath and immediately placed on ice. The cells were washed twice with PBS and resuspended in 100 uL of PBS. A 20 uL aliquot was placed in each of 5 wells of an LJL 96-well plate, and fluorescence was counted by a LJL plate reader.
# [1] = Solubility of the isolated conjugate in methanol and water; assay type: physicochemical; settings: isolated product after preparative TLC
# Procedure: More particularly, 2.2 mg (4 micromoles) of 6-((4,4-difluoro-5,7-dimethyl-4-bora-3a,4a-diaza-s-indacene-3-propionyl)amino)hexanoic acid, succinimidyl ester was dissolved in 0.3 ml of DMF followed by the addition of 6 mg (28 micromoles) of glucosamine HCL dissolved in 0.3 ml of water and 3.9 microliters (28 micromoles) of triethyl amine. The reaction was stirred for 24 hrs at room temperature, evaporated under reduced pressure, and dissolved in a minimum of methanol. This solution was spread on a preparative TLC plate (silica), dried, and developed with 2.5% water in acetonitrile. The plate was then dried and the product visualized with a UV light.
# About 4 mg (4.8 micromoles) of Texas Red®-X, succinimidyl ester *single isomer* (816.94 MW, Molecular Probes, T-20175) were dissolved in 1.2 ml of methanol and combined with 4 mg (18 micromoles) of glucosamine HCl (Sigma) in 600 microliters of water. About 2.5 microliters (18 micromoles) of triethylamine were then added. The reaction was stirred overnight at 20° C. and then evaporated under reduced pressure. The gum was dissolved in methanol and spread on a preparative TLC plate (silica), dried, and developed with 10% water in acetonitrile. The plate was then dried and the product visualized with a UV light. […] B. Synthesis of 5-(and 6) Carboxynaphtofluorescein Glucosamine Conjugate [drawing 12]
# About 8.3 mg (14 micromoles) of 5-(and-6)-carboxynaphthofluorescein, succinimidyl ester *mixed isomers* (MW 573.51, Molecular Probes, C-653) were dissolved in 2 ml of DMF, and 10 mg (46 micromoles) of glucosamine HCl (Sigma) in 1 ml of water was added. About 5.8 microliters (46 micromoles) of triethylamine were then added. The reaction was stirred overnight at 20° C. and then evaporated under reduced pressure. The gum was dissolved in 25% water in methanol and spread on a preparative TLC plate (silica), dried, and developed with 10% water in acetonitrile. The plate was then dried and the product visualized with a UV light. […] C. Synthesis of Glucosamine N-Methylanthranilamide Conjugate [drawing 13]
SMILES,uptake by a cancer cell as compared to a normal cell (Raji lymphoma cells),solubility in methanol [1],solubility in water [1]
"O=C[C@H](Nc1ccc([N+](=O)[O-])c2nonc12)[C@@H](O)[C@H](O)[C@H](O)CO [2-NBDG, 2-(N-(7-nitrobenz-2-oxa-1,3-diazol-4-yl)amino)-2-deoxyglucose]",preferred uptake,–,–
"O=C(CCCCCNS(=O)(=O)c1ccc(C2=c3cc4c5c(c3Oc3c2cc2c6c3CCCN6CCC2)CCC[N+]=5CCC4)c(S(=O)(=O)[O-])c1)NC1C(O)OC(CO)C(O)C1O (single isomer, unassigned) [Texas Red Glucosamine Conjugate]",–,soluble,sparingly soluble
O=C(NC1C(O)OC(CO)C(O)C1O)c1ccc(C(=O)O)c(-c2c3ccc4cc(O)ccc4c3oc3c2ccc2cc(=O)ccc23)c1 (centres unmarked),–,soluble,sparingly soluble
